pEC50: −log10 of the molar value.
Key:
[1] = tested on: severe acute respiratory syndrome virus; experiment: organism not typed; type: cell-based; conditions: Vero C1008

Row | Structure (SMILES) | pEC50 [1] | inhibitory effect on cell growth (Vero E6 cells)
1 | CC(C)[C@H](NC(=O)OCc1ccccc1)C(=O)N[C@@H](Cc1ccccc1)[C@@H](O)[C@H](O)[C@H](Cc1ccccc1)NC(=O)[C@@H](NC(=O)OC(C)(C)C)C(C)C [Compound 1] | 4.00 to 6.07 | none of them exhibited inhibitory effect on cell growth
2 | CC(C)[C@H](NC(=O)[C@H](C)NC(=O)OCc1ccccc1)C(=O)N[C@@H](Cc1ccccc1)[C@@H](O)[C@H](O)[C@H](Cc1ccccc1)NC(=O)[C@@H](NC(=O)[C@H](C)NC(=O)OCc1ccccc1)C(C)C [Compound 2] | 4.00 to 6.07 | none of them exhibited inhibitory effect on cell growth
3 | CCCCCCC1=C2C[C@H]3C(C)(C)C[C@@H](OC1=O)[C@@]23C [Compound 3] | 4.00 to 6.07 | none of them exhibited inhibitory effect on cell growth
4 | CCCCCC12C3=C(c4ccccc4)C(=O)O[C@@H]1CC[C@@H]2C3 (stereo partly shown) [Compound 4] | 4.00 to 6.07 | none of them exhibited inhibitory effect on cell growth
5 | CC(C)=CCC[C@](C)(O)[C@H]1CC[C@@H]2[C@@H]1CC[C@H]1[C@@]2(C)CC[C@H]2C(C)(C)C(=O)CC[C@]12C [Compound 6] | 4.00 to 6.07 | none of them exhibited inhibitory effect on cell growth
6 | COC(=O)CCCN1C[C@H](OCc2ccccc2)[C@@H](OCc2ccccc2)[C@H](OCc2ccccc2)[C@H]1COCc1ccccc1 [Compound 9] | 4.00 to 6.07 | none of them exhibited inhibitory effect on cell growth
7 | CC[C@H]1OC(=O)[C@H](C)C(=O)[C@H](C)[C@@H](O[C@@H]2C[C@H](C)C[C@H](N(C)C)[C@H]2O)[C@@](C)(OC)C[C@@H](C)CN(C(=O)CCCn2cc(-c3ccc(C(F)(F)F)cc3)nn2)[C@H](C)[C@@H](O)[C@]1(C)O [Compound 11] | 4.00 to 6.07 | none of them exhibited inhibitory effect on cell growth
8 | COC(=O)[C@H]1[C@H]2C[C@@H]3c4[nH]c5cc(OC)ccc5c4CCN3C[C@H]2C[C@@H](OC(=O)c2cc(OC)c(OC)c(OC)c2)[C@@H]1OC [Compound 13] | 4.00 to 6.07 | none of them exhibited inhibitory effect on cell growth
9 | O[C@H]1[C@H](O)[C@@H](OCc2cccc(F)c2)CNC[C@@H]1OCc1cccc(F)c1 [Compound 15] | 4.00 to 6.07 | none of them exhibited inhibitory effect on cell growth
10 | CC1(C)CCC2(C(=O)O)CC[C@@]3(C)C(=CCC4[C@@]5(C)CCC(O[C@@H]6OC(O)[C@@H](O)[C@@H](O)C6O[C@@H]6OC(O)[C@@H](O)[C@@H](O)C6O)C(C)(CO)C5CC[C@]43C)C2C1 (stereo partly shown) [Compound 16] | 4.00 to 6.07 | –
11 | CC(C)=CCC[C@](C)(CO[C@@H]1OC(CO[C@@H]2OC(CO)[C@@H](O)[C@@H](O)C2O)[C@@H](O)[C@@H](O)C1O)C1CC[C@@]2(C)C1C(O)CC1[C@@]3(C)CCC(O[C@@H]4OC(CO)[C@@H](O)[C@@H](O)C4O[C@@H]4OC(CO)[C@@H](O)[C@@H](O)C4O)C(C)(C)C3CC[C@]12C (stereo partly shown) [Compound 17] | 4.00 to 6.07 | –
12 | CC1(C)CC2C3=CCC4[C@@](C)(CCC5[C@@H](O)C(O[C@@H]6OC(CO)[C@@H](O)[C@@H](O)C6O[C@@H]6OC(CO)[C@@H](O)[C@@H](O)C6O)CC[C@@]54C)C3CC[C@@]2(C)[C@H](O)C1 (stereo partly shown) [Compound 18] | 4.00 to 6.07 | –
13 | COC(=O)[C@H]1[C@H]2C[C@@H]3c4[nH]c5cc(OC)ccc5c4CCN3C[C@H]2C[C@@H](OC(=O)/C=C/c2cc(OC)c(OC)c(OC)c2)[C@@H]1OC [Compound 19] | 4.00 to 6.07 | –
14 | COC(=O)C1=COC[C@H]2CN3CCc4c([nH]c5ccccc45)[C@@H]3C[C@H]12 [Compound 20] | 4.00 to 6.07 | –
15 | COC(=O)[C@H]1[C@H]2C[C@H]3c4[nH]c5cc(OC)ccc5c4CCN3C[C@H]2C[C@@H](OC(=O)c2cc(OC)c(OC)c(OC)c2)[C@@H]1OC [Compound 21] | 4.00 to 6.07 | –
16 | COC(=O)[C@H]1[C@H]2C[C@H]3c4[nH]c5ccccc5c4CCN3C[C@@H]2CC[C@@H]1O [Compound 22] | 4.00 to 6.07 | –
17 | COC(=O)C1[C@H]2C[C@H]3c4[nH]c5ccccc5c4CCN3C[C@H]2CC[C@@H]1O (stereo partly shown) [Compound 23] | 4.00 to 6.07 | –
18 | COC(=O)[C@@H]1[C@H]2C[C@H]3c4[nH]c5ccccc5c4CCN3C[C@@H]2CC[C@@H]1O [Compound 24] | 4.00 to 6.07 | –
19 | Cc1cccc(C)c1OCC(=O)N[C@@H](Cc1ccccc1)C[C@H](O)[C@H](Cc1ccccc1)NC(=O)[C@H](CC(C)C)NC(=O)c1ccc([N+](=O)[O-])o1 [Compound 25] | 4.00 to 6.07 | –
20 | Cc1cccc(C(=O)N[C@@H](CC(C)C)C(=O)N[C@@H](Cc2ccccc2)[C@@H](O)C[C@H](Cc2ccccc2)NC(=O)COc2c(C)cccc2C)c1 [Compound 27] | 4.00 to 6.07 | –
21 | Cc1cccc(C)c1OCC(=O)N[C@@H](Cc1ccccc1)C[C@H](O)[C@H](Cc1ccccc1)NC(=O)[C@H](CC(C)C)NC(=O)CSc1ccccn1 [Compound 28] | 4.00 to 6.07 | –
22 | Cc1cccc(C)c1OCC(=O)N[C@@H](Cc1ccccc1)C[C@H](O)[C@H](Cc1ccccc1)NC(=O)[C@H](CC(C)C)NC(=O)c1cc2ccccc2[nH]1 [Compound 29] | 4.00 to 6.07 | –
23 | Cc1cccc(C)c1OCC(=O)N[C@@H](Cc1ccccc1)C[C@H](O)[C@H](Cc1ccccc1)NC(=O)[C@H](CC(C)C)NC(=O)CN1C(=O)CSC1=S [Compound 30] | 4.00 to 6.07 | –
24 | Cc1cccc(C)c1OCC(=O)N[C@@H](Cc1ccccc1)C[C@H](O)[C@H](Cc1ccccc1)NC(=O)[C@H](CC(C)C)NC(=O)c1ccc(C(F)(F)F)cc1 [Compound 31] | 4.00 to 6.07 | –
25 | COc1ccc(/C=C/C(=O)N[C@@H](CC(C)C)C(=O)N[C@@H](Cc2ccccc2)[C@@H](O)C[C@H](Cc2ccccc2)NC(=O)COc2c(C)cccc2C)cc1 [Compound 32] | 4.00 to 6.07 | –
26 | Cc1cccc(C)c1OCC(=O)N[C@@H](Cc1ccccc1)C[C@H](O)[C@H](Cc1ccccc1)NC(=O)[C@H](CC(C)C)NC(=O)CCNC(=O)OC(C)(C)C [Compound 33] | 4.00 to 6.07 | –
27 | Cc1cccc(C)c1OCC(=O)N[C@@H](Cc1ccccc1)C[C@H](O)[C@H](Cc1ccccc1)NC(=O)[C@H](CC(C)C)NC(=O)C1=CCOc2ccc(Cl)cc21 [Compound 34] | 4.00 to 6.07 | –
28 | Cc1cccc(C)c1OCC(=O)N[C@@H](Cc1ccccc1)C[C@H](O)[C@H](Cc1ccccc1)NC(=O)[C@H](CC(C)C)NC(=O)COc1ccc2ccccc2c1 [Compound 35] | 4.00 to 6.07 | –
